The source of these data is patent US20260317340A1, “COMPOUNDS, COMPOSITIONS, AND METHODS OF TREATING DISORDERS” (Chengdu Anticancer Bioscience, Ltd., priority 2023, published 2026).

Where two headings read alike, the source gives them in different places.

One test concerns RPE-Neo or RPE-MYC cells. In words: MTT assay of cellular proliferation (proliferative arrest). Type of test: cell-based. Conditions: read-out: Min. Effective conc. for Proliferative arrest (>50%). The protocol: (§1) Human cancer cell lines were obtained from ATCC and cultured in DMEM (Gibco, Cleveland, TN, USA) supplemented with 5% fetal bovine serum (Gibco), penicillin (100 U/mL)-streptomycin (100 μg/mL) (Gibco, Cat. No. 15140-122), 2 mM L-glutamine (Gibco, 200 mM solution, Cat. No. 25030081), and 1 mM sodium pyruvate (Gibco, 100 mM solution, Cat. No. 11360070) at 37° C. in a humidified incubator that was maintained at 5% CO2.
Screening was conducted as described before (Li et al. 2019). Briefly, RPE-Neo or RPE-MYC or RPE-MYC expressing an EGFP-Histone 2B fusion protein were passaged as batches of 96-well plates, 18-24 hours before exposure to the chemical compounds of the present disclosure at concentrations from 20 nM to 20 μM. At 24, 48 or 72 hours after initiation of treatment, cells were analyzed for either an arrest in mitosis or a change in DNA content by GE IN-Cell Analyzer 2000. MTT assays of cellular proliferation were performed as previously described (Li et al. 2019). […]
(§2) As set forth in table 2 below, an values of greater than or equal to 1 nM and less than or equal to 1.0 μM is marked “A”; a value greater than 1.00 μM and less than or equal to 10.0 μM is marked “B”; a value greater than 10.0 μM and less than or equal to 30.0 μM is marked “C”; and a value greater than 30.0 μM and less than 1000 μM is marked “D.”

The test system of test [1] is RPE-Neo or RPE-MYC or RPE-MYC expressing an EGFP-Histone 2B fusion protein. In words: Phenotypic screening assay: arrest in mitosis, change in DNA content (polyploidy), cell death. Type of test: cell-based. Conditions: 20 nM to 20 μM, 24, 48 or 72 hours. The procedure:
as §1
Screening was conducted as described before (Li et al. 2019). Briefly, RPE-Neo or RPE-MYC or RPE-MYC expressing an EGFP-Histone 2B fusion protein were passaged as batches of 96-well plates, 18-24 hours before exposure to the chemical compounds of the present disclosure at concentrations from 20 nM to 20 μM. At 24, 48 or 72 hours after initiation of treatment, cells were analyzed for either an arrest in mitosis or a change in DNA content by GE IN-Cell Analyzer 2000. MTT assays of cellular proliferation were performed as previously described (Li et al. 2019).
as §2

[2] abbreviates: read-out: Min. Effective conc. for Along with Cell Death.
[3] abbreviates: ≥5%, read-out: Min. Effective conc. for Mitotic Arrest (≥5%).
Setting [4] is: ≥5%, read-out: Min. Effective conc. for Polyploidy (≥5%).

`COc1ccc(CN2C(=O)CC(c3ncc(C)o3)=Cc3ccc(-c4cnn(C)c4)cc32)cc1` [Compound 30, 1-(4-methoxybenzyl)-8-(1-methyl-1H-pyrazol-4-yl)-4-(5-methyloxazol-2-yl)-1,3-dihydro-2H-benzo[b]azepin-2-one]: the minimal effective concentration (in the test on RPE-Neo or RPE-MYC cells; in test [1] (setting [2]); in test [1] (setting [3]); in test [1] (setting [4])) was 0.001 to 1 µM throughout.
For the molecule `COc1ccc(CN2C(=O)CC(c3ncc(C)o3)=Cc3ccc(-c4cnn(CCN5CCCC5)c4)cc32)cc1` [Compound 64, 1-(4-methoxybenzyl)-4-(5-methyloxazol-2-yl)-8-(1-(2-(pyrrolidin-1-yl)ethyl)-1H-pyrazol-4-yl)-1,3-dihydro-2H-benzo[b]azepin-2-one], the minimal effective concentration (with RPE-Neo or RPE-MYC cells; in test [1] (setting [2]); in test [1] (setting [3]); in test [1] (setting [4])) was 0.001 to 1 µM throughout.
As for `Cc1ccc(CN2C(=O)CC(c3nnc(C4CC4)o3)=C(Br)c3ccc(OCCOCCOCCOCCOc4ccc5c(c4)N(Cc4ccc(C)c(F)c4)C(=O)CC(c4nnc(C6CC6)o4)=C5Br)cc32)cc1F` [Compound 2, 8,8′-((((Oxybis(ethane-2,1-diyl))bis(oxy))bis(ethane-2,1-diyl))bis(oxy))bis(5-bromo-4-(5-cyclopropyl-1,3,4-oxadiazol-2-yl)-1-(3-fluoro-4-methylbenzyl)-1,3-dihydro-2H-benzo[b]azepin-2-one)], the minimal effective concentration (in the test with RPE-Neo or RPE-MYC cells; in test [1] (setting [2]); in test [1] (setting [3]); in test [1] (setting [4])) was 1 to 10 µM in each case.
Take `COc1ccc(CN2C(=O)CC(c3ncc(C)o3)=Cc3ccc(O)cc32)cc1` [Compound 27, 8-hydroxy-1-(4-methoxybenzyl)-4-(5-methyloxazol-2-yl)-1,3-dihydro-2H-benzo[b]azepin-2-one]: the minimal effective concentration (with RPE-Neo or RPE-MYC cells; in test [1] (setting [2]); in test [1] (setting [3]); in test [1] (setting [4])) was 0.001 to 1 µM each time.
For `COc1ccc(CN2C(=O)CC(c3ncc(C)o3)=Cc3ccc(-c4cnn(C5CCOC5)c4)cc32)cc1` (centres unmarked) [Compound 48, 1-(4-methoxybenzyl)-4-(5-methyloxazol-2-yl)-8-(1-(tetrahydrofuran-3-yl)-1H-pyrazol-4-yl)-1,3-dihydro-2H-benzo[b]azepin-2-one], the minimal effective concentration (in the test on RPE-Neo or RPE-MYC cells; in test [1] (setting [2]); in test [1] (setting [3]); in test [1] (setting [4])) was 0.001 to 1 µM in each case.
With `COc1ccc(CN2C(=O)CC(c3nnc(C)o3)=Cc3ccc(-c4cnn(C)c4)cc32)cc1` [Compound 16, 1-(4-methoxybenzyl)-4-(5-methyl-1,3,4-oxadiazol-2-yl)-8-(1-methyl-1H-pyrazol-4-yl)-1,3-dihydro-2H-benzo[b]azepin-2-one], the minimal effective concentration (with RPE-Neo or RPE-MYC cells; in test [1] (setting [2]); in test [1] (setting [3]); in test [1] (setting [4])) was 0.001 to 1 µM each time.
For the molecule `COc1ccc(CN2C(=O)CC(c3ncc(C)o3)=Cc3ccccc32)cc1` [Compound 24, 1-(4-methoxybenzyl)-4-(5-methyloxazol-2-yl)-1,3-dihydro-2H-benzo[b]azepin-2-one], the minimal effective concentration (with RPE-Neo or RPE-MYC cells; in test [1] (setting [2]); in test [1] (setting [3]); in test [1] (setting [4])) was 0.001 to 1 µM throughout.
For `CNC(=O)c1cc(-c2ccc3c(c2)N(Cc2ccc(OC)cc2)C(=O)CC(c2ncc(C)o2)=C3)ccn1` [Compound 60, 4-(1-(4-Methoxybenzyl)-4-(5-methyloxazol-2-yl)-2-oxo-2,3-dihydro-1H-benzo[b]azepin-8-yl)-N-methylpicolinamide], the minimal effective concentration (in the test with RPE-Neo or RPE-MYC cells; in test [1] (setting [2]); in test [1] (setting [3]); in test [1] (setting [4])) was 0.001 to 1 µM throughout.
With `CCOCCn1cc(-c2ccc3c(c2)N(Cc2ccc(OC)cc2)C(=O)CC(c2ncc(C)o2)=C3)cn1` [Compound 80, 8-(1-(2-ethoxyethyl)-1H-pyrazol-4-yl)-1-(4-methoxybenzyl)-4-(5-methyloxazol-2-yl)-1,3-dihydro-2H-benzo[b]azepin-2-one], the minimal effective concentration (with RPE-Neo or RPE-MYC cells; in test [1] (setting [2]); in test [1] (setting [3]); in test [1] (setting [4])) was 0.001 to 1 µM in each case.
As to `COc1ccc(CN2C(=O)CC(c3nnc(C4CC4)o3)=C(Br)c3ccccc32)c(F)c1` [Compound 5, 5-Bromo-4-(5-cyclopropyl-1,3,4-oxadiazol-2-yl)-1-(2-fluoro-4-methoxybenzyl)-1,3-dihydro-2H-benzo[b]azepin-2-one], the minimal effective concentration (in the test on RPE-Neo or RPE-MYC cells; in test [1] (setting [2]); in test [1] (setting [3]); in test [1] (setting [4])) was 0.001 to 1 µM throughout.
As for `COc1ccc(CN2C(=O)CC(c3nnc(C)o3)=C(Br)c3ccccc32)cc1` [Compound 9, 5-Bromo-1-(4-methoxybenzyl)-4-(5-methyl-1,3,4-oxadiazol-2-yl)-1,3-dihydro-2H-benzo[b]azepin-2-one], the minimal effective concentration (in the test with RPE-Neo or RPE-MYC cells; in test [1] (setting [2]); in test [1] (setting [3]); in test [1] (setting [4])) was 0.001 to 1 µM throughout.
For the molecule `COCCOCCn1cc(-c2ccc3c(c2)N(Cc2ccc(OC)cc2)C(=O)CC(c2ncc(C)o2)=C3)cn1` [Compound 78, 1-(4-methoxybenzyl)-8-(1-(2-(2-methoxyethoxy)ethyl)-1H-pyrazol-4-yl)-4-(5-methyloxazol-2-yl)-1,3-dihydro-2H-benzo[b]azepin-2-one], the minimal effective concentration (with RPE-Neo or RPE-MYC cells; in test [1] (setting [2]); in test [1] (setting [3]); in test [1] (setting [4])) was 0.001 to 1 µM in each case.
Turning to `COc1ccc(C(=O)N2CCC(c3ncc(C)o3)=Cc3ccc(-c4cnn(CC(C)(C)O)c4)cc32)cc1` [Compound 104, (8-(1-(2-Hydroxy-2-methylpropyl)-1H-pyrazol-4-yl)-4-(5-methyloxazol-2-yl)-2,3-dihydro-1H-benzo[b]azepin-1-yl) (4-methoxyphenyl)methanone], the minimal effective concentration (with RPE-Neo or RPE-MYC cells; in test [1] (setting [2]); in test [1] (setting [3]); in test [1] (setting [4])) was 0.001 to 1 µM in each case.
As for `COc1ccc(CN2C(=O)CC(c3ncc(C)o3)=Cc3ccc(-c4ccc(OC)nc4)cc32)cc1` [Compound 44, 1-(4-methoxybenzyl)-8-(6-methoxypyridin-3-yl)-4-(5-methyloxazol-2-yl)-1,3-dihydro-2H-benzo[b]azepin-2-one], the minimal effective concentration (in the test on RPE-Neo or RPE-MYC cells; in test [1] (setting [2]); in test [1] (setting [3]); in test [1] (setting [4])) was 0.001 to 1 µM in each case.
With `COc1ccc(C(=O)N2CCC(c3ncc(C)o3)=Cc3ccc(-c4cnn(CC(C)(C)O)c4)cc32)cn1` [Compound 105, (8-(1-(2-Hydroxy-2-methylpropyl)-1H-pyrazol-4-yl)-4-(5-methyloxazol-2-yl)-2,3-dihydro-1H-benzo[b]azepin-1-yl)(6-methoxypyridin-3-yl)methanone], the minimal effective concentration (in the test with RPE-Neo or RPE-MYC cells; in test [1] (setting [2]); in test [1] (setting [3]); in test [1] (setting [4])) was 0.001 to 1 µM throughout.
As for `COc1ccc(CN2C(=O)CC(c3ncc(C)o3)=Cc3ccc(-c4cnn(CCC#N)c4)cc32)cc1` [Compound 59, 3-(4-(1-(4-Methoxybenzyl)-4-(5-methyloxazol-2-yl)-2-oxo-2,3-dihydro-1H-benzo[b]azepin-8-yl)-1H-pyrazol-1-yl)propanenitrile], the minimal effective concentration (in the test on RPE-Neo or RPE-MYC cells; in test [1] (setting [2]); in test [1] (setting [3]); in test [1] (setting [4])) was 0.001 to 1 µM each time.
Take `COc1ccc(CN2C(=O)CC(c3ncc(C)o3)=Cc3ccc(-c4cncnc4)cc32)cc1` [Compound 46, 1-(4-methoxybenzyl)-4-(5-methyloxazol-2-yl)-8-(pyrimidin-5-yl)-1,3-dihydro-2H-benzo[b]azepin-2-one]: the minimal effective concentration (in the test on RPE-Neo or RPE-MYC cells; in test [1] (setting [2]); in test [1] (setting [3]); in test [1] (setting [4])) was 0.001 to 1 µM throughout.
